Like-named read-outs stand apart in the source and are kept apart here.
What was measured:
[1] = tested on: T. brucei Squib 427; assay: In vitro drug susceptibility, T. brucei Squib 427 (resazurin); format: cell-based, Trypanosoma brucei brucei
Procedure: (§1) All trypanosome strains were cultured in the standard HMI-9 medium supplemented with 10% fetal bovine serum (FBS) at 37° C. in a 5% CO2 atmosphere.

[2] = tested on: T. b. rhodesiense STIB-900; assay: In vitro drug susceptibility, T. b. rhodesiense STIB-900 (resazurin); format: cell-based, Trypanosoma brucei rhodesiense
Procedure: as §1

[3] = tested on: MRC-5 fibroblasts; assay: Cytotoxicity against MRC-5 fibroblasts; conditions: read-out: MRC-5 EC50, cytotoxicity
Procedure: (§2) Cytotoxicity was assayed against MRC-5 fibroblasts. Results are depicted in Tables 4 and 5.

[4] = tested on: T. cruzi Tulahuen CL2 β galactosidase strain; assay: T. cruzi Tulahuen CL2 β galactosidase strain on MRC-5SV2 cells (CPRG); format: cell-based, Trypanosoma cruzi
Procedure: All cultures and assays were conducted at 37° C./5% CO2. […] The results were expressed as % reduction in parasite burdens compared to control wells from which an EC50 was calculated.

[5] = tested on: T. vaginalis trophozoites (metronidazole susceptible G3 strain); assay: Trichomonas vaginalis in vitro assay; format: cell-based; conditions: average of 2-5 independent replicates
Procedure: T. vaginalis trophozoites (metronidazole susceptible G3 strain) were grown in vitro in modified Diamond's media (MDM) with 10% heat inactivated horse serum (HIHS) acquired from Gibco Life Technologies. After medium preparation, the pH was adjusted to 6.3-6.4 employing 1.0 M aq. HCl. Parasites cultures were passaged every day by taking 1 mL of cell culture into a 25 mL bottle of fresh media to ensure the cells were kept at the appropriate concentration of ˜2×10^6 cells/mL. The culture flasks were filled completely and tightly capped to provide the cells with an anaerobic environment. The parasites were maintained in incubation at 37° C. When culturing in multiwell plates, the plates were sealed with Nescofilm® and inserted in BD GasPak EZ pouches (BD Diagnostics, UK) in order to create anaerobic conditions. Assays were performed with 5×10^4 trophozoites/well (100 μL) to which compound dilutions were added (100 μL). Outside wells of columns and rows were filled with 200 μL of sterile water. Plates were sealed with Nescofilm® and incubated under anaerobic conditions as described above. After 24 h, 30 μL of assay dye solution (resorufin) was added, and incubated for 1-2 h before being read using Fluostar Optima (BMG Labtech, UK) at an excitation wavelength of 544 nm and an emission wavelength of 620 nm.

[6] = Cytotoxicity against MRC-5 fibroblasts; conditions: human, MRC-5 fibroblasts, cytotoxicity
Procedure: as §2

[7] = Table 1, average of 2-4 independent determinations, read-out: T. brucei brucei EC50
[8] = Table 1, average of 2-4 independent determinations, read-out: T. brucei rhod. EC50
[9] = Table 2, average of 2-3 independent replicates
[10] = Trypanosoma brucei, read-out: T. brucei brucei EC50, Table 1, average of 2-4 independent determinations
[11] = Trypanosoma brucei, RHODESIENSE, read-out: T. brucei rhod. EC50
[12] = Trypanosoma cruzi, TULAHUEN, MRC-5 SV2, Table 2, average of 2-3 independent replicates
[13] = Trypanosoma brucei, read-out: T.b. brucei EC50, Table 4, average of 2-6 independent determinations
[14] = Trypanosoma cruzi, TULAHUEN, MRC-5 SV2, Table 5, average of 2-4 independent replicates
[15] = Trypanosoma brucei, RHODESIENSE, read-out: T.b. rhod. EC50

Row | Compound | EC50 [1, 10] [µM] | EC50 [2, 11] [µM] | EC50 ([6]; MRC-5 EC50, Table 1) [µM] | EC50 ([6]; MRC-5 EC50, Table 2) [µM] | EC50 [4, 12] [µM] | melting point [°C] | further results
1 | Nc1ncnc2c1c(-c1ccc(OC(F)(F)F)cc1)cn2[C@@H]1O[C@H](CO)C[C@H]1O [FH9577, 4-amino-5-(4-trifluoromethoxyphenyl)-N7-(3′-deoxy-β-D-ribofuranosyl)-pyrrolo[2,3-d]pyrimidine] |  |  |  |  |  |  | EC50 [1, 7]: 24.5 µM; EC50 [2, 8]: 9.8 µM; EC50 ([3]; Table 1): 40.4 µM; EC50 ([3]; Table 2): 40.4 µM; EC50 [4, 9]: 1.39 µM; EC50 ([5]; Table 3): 0.79 µM
2 | Nc1ncnc2c1c(-c1ccc(Cl)c(Cl)c1)cn2[C@@H]1O[C@H](CO)C[C@H]1O [FH8513] | 1.8 | 1.5 | 13.6 | 13.6 | 0.06 |  | EC50 ([5]; Trichomonas vaginalis, Table 3): 0.33 µM
3 | COc1ccc(-c2cn([C@@H]3O[C@H](CO)C[C@H]3O)c3ncnc(N)c23)cc1 [FH8494, 4-amino-5-(4-methoxyphenyl)-N7-(3′-deoxy-β-D-ribofuranosyl)-pyrrolo[2,3-d]pyrimidine] |  |  |  |  |  |  | EC50 [1, 7]: 3.7 µM; EC50 [2, 8]: 1.2 µM; EC50 ([3]; Table 1): 24.3 µM; EC50 ([3]; Table 2): 24.3 µM; EC50 [4, 9]: 2.4 µM; EC50 ([5]; Table 3): 0.73 µM
4 | Nc1ncnc2c1c(-c1cccc(Cl)c1)cn2[C@@H]1O[C@H](CO)C[C@H]1O [FH10641, 4-amino-5-(3-chlorophenyl)-N7-(3′-deoxy-β-D-ribofuranosyl)-pyrrolo[2,3-d]pyrimidine] | 7.13 | 0.55 | 36.1 | 36.1 | 0.97 | 130 | 
5 | Nc1ncnc2c1c(-c1ccc(C(F)(F)F)cc1)cn2[C@@H]1O[C@H](CO)C[C@H]1O [FH9576, 4-amino-5-(4-trifluoromethylphenyl)-N7-(3′-deoxy-β-D-ribofuranosyl)-pyrrolo[2,3-d]pyrimidine] | 19.5 | 6.6 | 40 | 40 | 0.53 |  | EC50 ([5]; Trichomonas vaginalis, Table 3): 0.26 µM
6 | Cc1ccc(-c2cn([C@@H]3O[C@H](CO)[C@@H](O)[C@H]3O)c3ncnc(N)c23)cc1 [TH1011, 4-amino-5-(4-methylphenyl)-N7-(β-D-ribofuranosyl)-pyrrolo[2,3-d]pyrimidine] |  |  |  |  |  | 165 | EC50 [1, 13]: 29.1 µM; EC50 ([6]; MRC-5 EC50, Table 4): 26.2 µM; EC50 ([6]; MRC-5 EC50, Table 5): 26.2 µM; EC50 [4, 14]: 1.5 µM; EC50 ([5]; Trichomonas vaginalis, Table 6): 0.06 µM
7 | CCCCC#Cc1cn([C@@H]2O[C@H](CO)C[C@H]2O)c2ncnc(N)c12 [FH9611, 4-amino-5-hex-1-yn-N7-(3′-deoxy-β-D-ribfuranosyl)-pyrrolo[2,3-d]pyrimidine] | 0.32 | 0.06 | > 64 | > 64 | 9.7 | 161 to 163 | 
8 | Nc1ncnc2c1c(CCc1ccccc1)cn2[C@@H]1O[C@H](CO)C[C@H]1O [FH10661, 4-amino-5-(phenylethyl)-N7-(3′-deoxy-β-D-ribfuranosyl)-pyrrolo[2,3-d]pyrimidine] | 8.26 | 0.67 | > 64 | > 64 | > 64 | 76 | 
9 | Nc1ncnc2c1c(-c1cc(Cl)cc(Cl)c1)cn2[C@@H]1O[C@H](CO)C[C@H]1O [FH10642, 4-amino-5-(3,5-dichlorophenyl)-N7-(3′-deoxy-β-D-ribofuranosyl)-pyrrolo[2,3-d]pyrimidine] | 7.7 | 5.45 | 30.2 | 30.2 | 0.55 | 211 | 
10 | Nc1ncnc2c1c(-c1ccc(Cl)cn1)cn2[C@@H]1O[C@H](CO)[C@@H](O)[C@H]1O [MS1039, 4-amino-5-(5-chloro-pyrid-2-yl)-N7-(β-D-ribofuranosyl)-pyrrolo[2,3-d]pyrimidine] |  |  |  |  |  |  | EC50 [1, 13]: 8.97 µM; EC50 [2, 15]: 4.6 µM; EC50 ([6]; MRC-5 EC50, Table 4): > 64 µM; EC50 ([6]; MRC-5 EC50, Table 5): > 64 µM; EC50 [4, 14]: 2.39 µM; EC50 ([5]; Trichomonas vaginalis, Table 6): 0.86 µM
11 | Nc1ncnc2c1c(-c1ccc3ccccc3c1)cn2[C@@H]1O[C@H](CO)[C@@H](O)[C@H]1O [FH8461, 4-amino-5-(2-naftyl)-N7-(β-D-ribofuranosyl)-pyrrolo[2,3-d]pyrimidine] |  |  |  |  |  |  | EC50 ([1]; Table 4, average of 2-6 independent determinations, read-out: T.b. brucei EC50): 7.83 µM; EC50 ([2]; Table 4, average of 2-6 independent determinations, read-out: T.b. rhod. EC50): 6.79 µM; EC50 ([3]; Table 4): 7.53 µM; EC50 ([3]; Table 5): 7.53 µM; EC50 ([4]; Table 5, average of 2-4 independent replicates): 2.48 µM; EC50 ([5]; Table 6): 0.58 µM
12 | Cc1ncc([N+](=O)[O-])n1CCO [Metronidazole, reference compound] |  |  |  |  |  |  | EC50 ([5]; Trichomonas vaginalis, Table 3): 0.53 µM
13 | Nc1ncnc2c1c(C#Cc1ccccc1)cn2[C@@H]1O[C@H](CO)C[C@H]1O [FH8504, 4-amino-5-phenylethynyl-N7-(3′-deoxy-β-D-ribofuranosyl)-pyrrolo[2,3-d]pyrimidine] | 0.3 | 0.12 | 9.6 | 9.6 | 3.7 | 120 | 
14 | Nc1ncnc2c1c(-c1ccccc1)cn2[C@@H]1O[C@H](CO)[C@@H](O)[C@H]1O [TH1004, 4-amino-5-phenyl-N7-(β-D-ribofuranosyl)-pyrrolo[2,3-d]pyrimidine] |  |  |  |  |  |  | EC50 [1, 13]: 32.3 µM; EC50 [2, 15]: 4.1 µM; EC50 ([6]; MRC-5 EC50, Table 4): 56.2 µM; EC50 ([6]; MRC-5 EC50, Table 5): 56.2 µM; EC50 [4, 14]: 3.44 µM; EC50 ([5]; Trichomonas vaginalis, Table 6): 0.43 µM
15 | CCc1cn([C@@H]2O[C@H](CO)C[C@H]2O)c2ncnc(N)c12 [FH9613, 4-amino-5-ethyl-N7-(3′-deoxy-β-D-ribofuranosyl)-pyrrolo[2,3-d]pyrimidine] | 1.78 | 0.65 | > 64 | > 64 | 19.7 | 200 | 
16 | OC[C@@H]1C[C@@H](O)[C@H](n2cc(Br)c3cncnc32)O1 [FH9539, 5-bromo-N7-(3′-deoxy-β-D-ribofuranosyl)-pyrrolo[2,3-d]pyrimidine] | 0.51 | 0.91 | 21 | 21 | 36.8 | 186 | 
17 | CCCC#Cc1cn([C@@H]2O[C@H](CO)C[C@H]2O)c2ncnc(N)c12 [FH9610, 4-amino-5-pent-1-yn-N7-(3′-deoxy-β-D-ribfuranosyl)-pyrrolo[2,3-d]pyrimidine] | 0.32 | 0.04 | > 64 | > 64 | 4.1 | 127 to 129 | 

Source: patent publication US11072628B2, “Nucleoside analogues for the treatment of parasitic infections” (UNIVERSITEIT GENT, priority 2017, dated 2021)
